Counter-ions that a name gives are not always drawn.
Experiment: in vitro pharmaceutical release in simulated gastric fluid and simulated intestinal fluid
Type: physicochemical
Conditions: for cumulative release: from the capsule, simulated gastric fluid (pH=1.7) / simulated intestinal fluid (pH=7.4), time not stated; for release kinetics model fit: release from the fibres, in vitro
Source text: FIGS. 7A and 7B illustrate the use of a pharmaceutical delivery device in accordance with an embodiment of the present invention to release two pharmaceuticals at the same time, each with their own unique release profile, in which FIG. 7A is a pharmaceutical release profile of APAP and CM from the various capsule configurations in a simulated gastric fluid (pH=1.7) and a simulated intestinal fluid (pH=7.4), and FIG. 7B is a detailed pharmaceutical release profile for APAP and CM from the composite capsule in the first two hours in a simulated gastric fluid (pH=1.7); and
The capsule sample was immersed into a 100 ml beaker containing 50 mL PBS solution being stirred at 100 rpm. The whole separation process was finished in 169 s and the complete dissolution of PVP finished until 295 s. Also, regulation and controlled movement of each component pharmaceutical layer after separation was achieved by adding Fe3O4 nanoparticles and an external magnetic field. The separated capsule containing the printed outer PCL with embedded Fe3O4 nanoparticles and travel quickly from left to right under an applied external magnet field while the inner layer without any nanoparticles remained stationary (FIG. 5). This travel distance was covered within 3 s at a velocity of 6.7 mm/s. […] This allows for multifunctional uses of the capsule such as for targeted pharmaceutical release using an externally located magnet, and as a magnetic resonance tracer. […] The cumulative release of APAP was more than 90% while the cumulative release of CM was around 70%.

SMILES | cumulative release | release kinetics model fit | release rate comparison (first 2 hours in simulated gastric fluid (pH=1.7), composite capsule)
CN(C)CCC(c1ccc(Cl)cc1)c1ccccn1 (centres unmarked) [CM, chlorpheniramine maleate] | around 70% | mostly fit the Higuchi model | –
CC(=O)Nc1ccc(O)cc1 [APAP, paracetamol] | more than 90% | mostly fit the Higuchi model | faster than CM

Source: US20220409531A1, “PHARMACEUTICAL DELIVERY DEVICE AND METHOD OF MANUFACTURE” (University of Ulster, priority 2019, published 2022)
